Here are results for 10 molecules from ChEMBL document CHEMBL1201862, “PubChem BioAssay data set” (2004).

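Assay format: 96-well plates, 48-hour exposure. The concentration for 50% growth inhibition is given as GI50.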 Activity calls are given as the source filed them. Cut-off read from the data, not from the text of the source: active = GI50 up to about 1.1 µM and inactive = higher.

Test systems include ACHN; COLO 205; DU-145; HCT-116; HCT-15; HL-60; HOP-62; HT-29; IGROV-1; K562; KM12; MDA-MB-435; NCI-H226; NCI-H23; NCI-H522; NCI/ADR-RES; SF-268; SK-MEL-28; UACC-257; UACC-62.
Holding throughout (assay): NCI anticancer screen, dose series, 48 h

For the molecule `CC(C(=O)O)/C(=C\c1ccc2c(c1)OCO2)C(=O)O` (stereo not given), the GI50 in the experiment with ACHN is > 100 µM (inactive); in the experiment with COLO 205, > 100 µM (inactive); in the experiment on DU-145, > 100 µM (inactive); in the experiment on HCT-116 it was > 100 µM (inactive); in the experiment with HCT-15 it was more than 100 µM; in the experiment on HL-60 it was 0.0226 µM (active). Also, the GI50 with HOP-62 is > 100 µM (inactive); in the experiment with HT-29, > 61.5 µM (inactive); in the experiment on IGROV-1, > 100 µM (inactive); in the experiment on K562, > 92.5 µM (inactive); in the experiment on KM12, > 100 µM (inactive); in the experiment with MDA-MB-435, > 100 µM (inactive). Besides, the GI50 in the experiment on NCI-H226 was > 77.6 µM (inactive); in the experiment on NCI-H23, > 100 µM (inactive); in the experiment with NCI-H522, > 100 µM (inactive); with NCI/ADR-RES, > 100 µM (inactive); with SF-268 it was > 100 µM (inactive); in the experiment with SK-MEL-28 it was > 100 µM (inactive). Further, the GI50 in the experiment with UACC-257 and with UACC-62 was > 100 µM (inactive) in each case.

Take `CCOC(=O)/C(=C\c1ccccc1)C(=O)CCN1CCOCC1`: the GI50 in the experiment with ACHN is 5.38 µM (inactive); with COLO 205, 3.66 µM (inactive); in the experiment with DU-145 it was 17.2 µM (inactive); with HCT-116, 8.97 µM (inactive); in the experiment with HCT-15, 3.2 µM; in the experiment with HL-60, 1.4 µM (inactive). Besides, the GI50 in the experiment on HOP-62 is 21 µM (inactive); with HT-29, 6.3 µM (inactive); with IGROV-1, 15.2 µM (inactive); with K562 it was 1.57 µM (inactive); in the experiment on KM12 it was 7.94 µM (inactive); in the experiment on MDA-MB-435, 19 µM (inactive). The GI50 in the experiment on NCI-H226 was 20.7 µM (inactive); in the experiment with NCI-H23, 8.85 µM (inactive); in the experiment with NCI-H522, 1.67 µM (inactive); with NCI/ADR-RES, 3.06 µM (inactive); with SF-268, 8.17 µM (inactive); with SK-MEL-28 it was 3.54 µM (inactive). Moreover, the GI50 in the experiment on UACC-257 was 4.58 µM (inactive); with UACC-62 it was 4.24 µM (inactive).

`Cc1cc(=O)oc2c(CNC(CO)C(=O)O)c(O)ccc12` (stereo not given): the GI50 in the experiment with ACHN is > 100 µM (inactive); in the experiment on COLO 205, > 100 µM (inactive); with DU-145, > 100 µM (inactive); with HCT-116, > 100 µM (inactive); in the experiment with HCT-15, more than 100 µM; in the experiment with HL-60 it was > 100 µM (inactive). Also, the GI50 in the experiment with HOP-62, in the experiment on HT-29, with IGROV-1, with K562, in the experiment with KM12 and in the experiment with MDA-MB-435 was > 100 µM (inactive) each time. Also, the GI50 with NCI-H226, in the experiment on NCI-H23, with NCI-H522, in the experiment with NCI/ADR-RES, with SF-268 and with SK-MEL-28 was > 100 µM (inactive) each time. The GI50 in the experiment on UACC-257 and in the experiment with UACC-62 was > 100 µM (inactive) in each case.

Consider `CC(=O)NC(=N/N=C1/C(=O)Nc2ccc(C)cc21)NC(C)=O`, for which the GI50 with ACHN is > 100 µM (inactive); in the experiment with COLO 205, > 100 µM (inactive); with DU-145, > 100 µM (inactive); in the experiment on HCT-116 it was > 100 µM (inactive); with HCT-15, more than 100 µM; with HL-60, > 100 µM (inactive). In addition, the GI50 in the experiment on HOP-62, in the experiment with HT-29, in the experiment on IGROV-1, in the experiment with K562, with KM12 and with MDA-MB-435 was > 100 µM (inactive) throughout. The GI50 was 98.2 µM (inactive) in the experiment with NCI-H226; > 100 µM (inactive) in the experiment on NCI-H23; > 100 µM (inactive) in the experiment with NCI-H522; > 100 µM (inactive) in the experiment on NCI/ADR-RES; > 100 µM (inactive) in the experiment with SF-268; > 100 µM (inactive) with SK-MEL-28. Further, the GI50 in the experiment on UACC-257 and with UACC-62 was > 100 µM (inactive) each time.

For `COc1ccc2[nH]c3c(C)c4ccnc(NCCCN(C)CCCNc5ccc([N+](=O)[O-])c6[nH]c7ccccc7c(=O)c56)c4c(C)c3c2c1`, the GI50 with ACHN was 0.0207 µM (active); in the experiment on COLO 205, 0.0723 µM (active); with DU-145, 0.628 µM (active); in the experiment on HCT-116 it was 0.0145 µM (active); in the experiment on HCT-15, 0.0295 µM; in the experiment with HL-60, 0.53 µM (active). In addition, the GI50 in the experiment on HOP-62 is 0.239 µM (active); with HT-29, 0.00813 µM (active); in the experiment on IGROV-1 it was 0.0291 µM (active); in the experiment with K562, 0.00652 µM (active); in the experiment with KM12 it was 0.301 µM (active); with MDA-MB-435, 0.471 µM (active). The GI50 with NCI-H226 was 0.421 µM (active); in the experiment with NCI-H23, 0.575 µM (active); in the experiment on NCI-H522, 0.0235 µM (active); in the experiment with NCI/ADR-RES, 0.592 µM (active); with SF-268, 0.52 µM (active); in the experiment on SK-MEL-28, 0.887 µM (active). Also, the GI50 was 0.655 µM (active) in the experiment on UACC-257 and 0.82 µM (active) in the experiment with UACC-62.

For `COc1cc(OC)c2c(=O)cc(-c3ccccc3F)[nH]c2c1`, the GI50 was > 100 µM (inactive) in the experiment with ACHN; 75.9 µM (inactive) in the experiment with COLO 205; 76.4 µM (inactive) with DU-145; 38.3 µM (inactive) in the experiment on HCT-116; 28.6 µM in the experiment with HCT-15; > 100 µM (inactive) in the experiment on HL-60. Moreover, the GI50 is 82.6 µM (inactive) with HOP-62; 38.2 µM (inactive) in the experiment with HT-29; 37.5 µM (inactive) in the experiment on IGROV-1; 53.3 µM (inactive) in the experiment with K562; 32.9 µM (inactive) in the experiment with KM12; 8.38 µM (inactive) in the experiment with MDA-MB-435. Also, the GI50 in the experiment with NCI-H226 is 23.7 µM (inactive); in the experiment on NCI-H23, 32.9 µM (inactive); with NCI-H522 it was 27 µM (inactive); in the experiment on NCI/ADR-RES it was 35.3 µM (inactive); with SF-268 it was 39.2 µM (inactive); with SK-MEL-28, > 100 µM (inactive). For the same molecule, the GI50 in the experiment with UACC-257 is > 100 µM (inactive); in the experiment on UACC-62 it was 52.8 µM (inactive).

As to `COc1cc2c(c(O)c1OC)C(=O)C1CCC(=O)N1C2c1cccc2ccccc12` (stereo not given), the GI50 in the experiment with ACHN is 28.9 µM (inactive); in the experiment with COLO 205, 15.4 µM (inactive); in the experiment with DU-145, > 100 µM (inactive); in the experiment on HCT-116, 50.5 µM (inactive); with HCT-15, 41.3 µM; in the experiment on HL-60, 20.6 µM (inactive). The GI50 was 54.8 µM (inactive) in the experiment on HOP-62; 42.5 µM (inactive) with HT-29; 36.1 µM (inactive) in the experiment with IGROV-1; 18.9 µM (inactive) with K562; 42.3 µM (inactive) in the experiment on KM12; 44.5 µM (inactive) in the experiment on MDA-MB-435. Further, the GI50 with NCI-H226 is > 100 µM (inactive); in the experiment on NCI-H23, 89.7 µM (inactive); with NCI-H522, 23.7 µM (inactive); with NCI/ADR-RES, 41.2 µM (inactive); in the experiment on SF-268, 57.8 µM (inactive); in the experiment with SK-MEL-28, 73.6 µM (inactive). The GI50 in the experiment on UACC-257 is 30.1 µM (inactive); in the experiment with UACC-62 it was 58.5 µM (inactive).

On to `C1CCN2CC34CC(CC5CCCN(C6CCCC3N6)C54)C2C1` (stereo not given), for which the GI50 with ACHN was > 100 µM (inactive); in the experiment with COLO 205, > 100 µM (inactive); in the experiment with DU-145, > 100 µM (inactive); in the experiment on HCT-116, > 100 µM (inactive); in the experiment on HCT-15, more than 100 µM; in the experiment with HL-60 it was > 100 µM (inactive). The GI50 with HOP-62, with HT-29, in the experiment with IGROV-1, in the experiment with K562, in the experiment with KM12 and with MDA-MB-435 was > 100 µM (inactive) throughout. Besides, the GI50 in the experiment on NCI-H226, in the experiment on NCI-H23, in the experiment with NCI-H522, in the experiment with NCI/ADR-RES, in the experiment with SF-268 and in the experiment on SK-MEL-28 was > 100 µM (inactive) in each case. For the same molecule, the GI50 in the experiment with UACC-257 and in the experiment with UACC-62 was > 100 µM (inactive) throughout.

For the molecule `COc1ccc(C(C)NNC(=O)c2cc[n+]([BH2-]C#N)cc2)cc1F` (stereo not given), the GI50 was > 100 µM (inactive) in the experiment on ACHN; > 100 µM (inactive) in the experiment with COLO 205; > 100 µM (inactive) with DU-145; > 100 µM (inactive) with HCT-116; more than 100 µM in the experiment on HCT-15; > 100 µM (inactive) in the experiment on HL-60. For the same molecule, the GI50 in the experiment on HOP-62, in the experiment with HT-29, in the experiment with IGROV-1, in the experiment on K562, in the experiment with KM12 and in the experiment on MDA-MB-435 was > 100 µM (inactive) in each case. The GI50 with NCI-H226 is > 100 µM (inactive); with NCI-H23 it was 96.2 µM (inactive); in the experiment on NCI-H522, > 100 µM (inactive); in the experiment on NCI/ADR-RES, > 100 µM (inactive); in the experiment on SF-268 it was > 100 µM (inactive); in the experiment with SK-MEL-28 it was > 100 µM (inactive). The GI50 in the experiment on UACC-257 and with UACC-62 was > 100 µM (inactive) throughout.

Consider `O=C(Nc1cc(Cl)c(I)c(Cl)c1)C(F)(F)F`, for which the GI50 with ACHN is 30.3 µM (inactive); in the experiment with COLO 205 it was 21.5 µM (inactive); in the experiment on DU-145, 42 µM (inactive); with HCT-116 it was 24.5 µM (inactive); with HCT-15 it was 18 µM; in the experiment with HL-60 it was 19.2 µM (inactive). In addition, the GI50 in the experiment on HOP-62 is 31.2 µM (inactive); in the experiment with HT-29 it was 19.8 µM (inactive); in the experiment on IGROV-1, 27.2 µM (inactive); with K562, 28.2 µM (inactive); with KM12, 27.5 µM (inactive); with MDA-MB-435 it was 30.3 µM (inactive). For the same molecule, the GI50 was 23.1 µM (inactive) in the experiment on NCI-H226; 26.2 µM (inactive) with NCI-H23; 21.7 µM (inactive) with NCI-H522; 34.8 µM (inactive) with NCI/ADR-RES; 27.1 µM (inactive) in the experiment on SF-268; 25.2 µM (inactive) in the experiment on SK-MEL-28. Besides, the figures for the GI50 in the experiment on UACC-257 and in the experiment on UACC-62 were 45.6 µM (inactive) and 20.3 µM (inactive), respectively.
